Where two headings read alike, the source gives them in different places.
Experiments:
[1] = system: Mycosphaerella graminicola; anamorph: Septoria tritici (SEPTTR); test: Leaf blotch of wheat (SEPTTR) whole-plant fungicidal test; format: in vivo; conditions: Zymoseptoria tritici, topical; for pest or weed control at 121.5 g/ha: low volume (track spray) application, 121.5 g/H; for pest or weed control at 100 ppm: high volume application
Description: (§1) All fungicides were evaluated using the aforementioned method for their activity vs. all target diseases, unless stated otherwise. Wheat leaf blotch and brown rust activity were also evaluated using track spray applications, in which case the fungicides were formulated as EC formulations, containing 0.1% Trycol 5941 in the spray solutions. Wheat plants (variety Yuma) were grown from seed in a greenhouse in 50% mineral soil/50% soil-less Metro mix until the first leaf was fully emerged, with 7-10 seedlings per pot. These plants were inoculated with an aqueous spore suspension of Septoria tritici either prior to or after fungicide treatments. After inoculation the plants were kept in 100% relative humidity (one day in a dark dew chamber followed by two to three days in a lighted dew chamber at 20° C.) to permit spores to germinate and infect the leaf. The plants were then transferred to a greenhouse set at 20° C. for disease to develop. When disease symptoms were fully expressed on the 1st leaves of untreated plants, infection levels were assessed on a scale of 0 to 100 percent disease severity. Percent disease control was calculated using the ratio of disease severity on treated plants relative to untreated plants.

[2] = system: Puccinia triticina; synonym: Puccinia recondita f. sp. tritici (PUCCRT); test: Wheat brown rust (PUCCRT) whole-plant fungicidal test; format: in vivo; conditions: topical; for pest or weed control at 121.5 g/ha: low volume (track spray) application, 121.5 g/H; for pest or weed control at 100 ppm: high volume application
Description: as §1, with “plants. Wheat plants (variety Yuma) were grown from seed in a greenhouse in 50% mineral soil/50% soil-less Metro mix until the first leaf was fully emerged, with 7-10 seedlings per pot. These plants were inoculated with an aqueous spore suspension of Puccinia triticina either prior to or after fungicide treatments. […] The plants were then transferred to a greenhouse set at 24° C. for disease to develop. Fungicide formulation, application and disease assessment followed the procedures as described in the Example A.” for “plants.”

[3] = 24 h, 1 Day Protectant, read-out: Low Volume activity at 121.5 g/H SEPTTR 1DP (% disease control rating)
[4] = 72 h, 3 Day Curative, read-out: Low Volume activity at 121.5 g/H SEPTTR 3DC (% disease control rating)
[5] = 24 h, 1 Day Protectant, read-out: Low Volume activity at 121.5 g/H PUCCRT 1DP (% disease control rating)
[6] = 72 h, 3 Day Curative, read-out: Low Volume activity at 121.5 g/H PUCCRT 3DC (% disease control rating)
[7] = 24 h, 1 Day Protectant, read-out: High Volume activity at 100 ppm SEPTTR 1DP (% disease control rating)
[8] = 72 h, 3 Day Curative, read-out: High Volume activity at 100 ppm SEPTTR 3DC (% disease control rating)
[9] = 24 h, 1 Day Protectant, read-out: High Volume activity at 100 ppm PUCCRT 1DP (% disease control rating)
[10] = 72 h, 3 Day Curative, read-out: High Volume activity at 100 ppm PUCCRT 3DC (% disease control rating)

SMILES	pest or weed control at 121.5 g/ha [1, 3]	pest or weed control at 121.5 g/ha [1, 4]	pest or weed control at 121.5 g/ha [2, 5]	pest or weed control at 121.5 g/ha [2, 6]	pest or weed control at 100 ppm [1, 7]	pest or weed control at 100 ppm [1, 8]	pest or weed control at 100 ppm [2, 9]	pest or weed control at 100 ppm [2, 10]
COc1ccnc(C(=O)N[C@H]2CCC[C@H](Cc3ccc(Cl)cc3)[C@@H](CC(C)C)[C@H](C)OC2=O)c1OCOC(C)=O [Compound 12]	> 70%	> 70%	> 70%	< 70%				
COc1ccnc(C(=O)N[C@H]2CCC[C@H](Cc3ccc(Cl)cc3)[C@@H](Cc3ccccc3)[C@H](C)OC2=O)c1O [Compound 79]					> 70%	< 70%	> 70%	< 70%
COc1ccnc(C(=O)N[C@H]2CCC[C@H](CCCc3ccccc3)[C@@H](Cc3ccc(OC(F)(F)F)cc3)[C@H](C)OC2=O)c1OC(=O)C(C)C [Compound 58, 4-methoxy-2-(((3S,7S,8R,9S)-9-methyl-2-oxo-7-(3-phenylpropyl)-8-(4-(trifluoromethoxy)benzyl)oxonan-3-yl)carbamoyl)pyridin-3-yl isobutyrate]	< 70%	< 70%	< 70%	< 70%				
CCC[C@H]1CCC[C@H](NC(=O)c2nccc(OC)c2OCOC(C)=O)C(=O)O[C@@H](C)[C@@H]1c1ccccc1 [Compound 54]	> 70%	> 70%	> 70%	> 70%				
COc1ccnc(C(=O)N[C@H]2CCC[C@H](CCC(C)C)[C@@H](CCc3ccccc3)[C@H](C)OC2=O)c1OCOC(C)=O [Compound 34]	> 70%	> 70%	> 70%	< 70%				
COc1ccnc(C(=O)N[C@H]2CCC[C@H](Cc3ccc(Cl)cc3)[C@@H](C3CCCC3)[C@H](C)OC2=O)c1OC(C)=O [Compound 28]	> 70%	> 70%	> 70%	< 70%				
COc1ccnc(C(=O)N[C@H]2CCC[C@H](CCCc3ccccc3)[C@@H](CC(C)C)[C@H](C)OC2=O)c1OC(C)=O [Compound 56]	> 70%	< 70%	> 70%	< 70%				
CCOCC(=O)OCOc1c(OC)ccnc1C(=O)N[C@H]1CCC[C@H](Cc2ccccc2)[C@@H](Cc2ccc(OC(F)(F)F)cc2)[C@H](C)OC1=O [Compound 69]	> 70%	< 70%	< 70%	< 70%				
COc1ccnc(C(=O)N[C@H]2CCC[C@H](Cc3ccccc3)[C@@H](Cc3ccccc3)[C@H](C)OC2=O)c1OC(C)=O [Compound 5]	> 70%	> 70%	> 70%	> 70%				
CCOCC(=O)OCOc1c(OC)ccnc1C(=O)N[C@H]1CCC[C@H](Cc2ccccc2)[C@@H](Cc2ccccc2)[C@H](C)OC1=O [Compound 8, ((2-(((3S,7R,8R,9S)-7,8-dibenzyl-9-methyl-2-oxooxonan-3-yl)carbamoyl)-4-methoxypyridin-3-yl)oxy)methyl 2-ethoxyacetate]	> 70%	> 70%	> 70%	< 70%				
COc1ccnc(C(=O)N[C@H]2CCC[C@H](Cc3ccccc3)[C@@H](C3CCCC3)[C@H](C)OC2=O)c1OC(C)=O [Compound 9]	> 70%	> 70%	> 70%	< 70%				
CCC[C@H]1CCC[C@H](NC(=O)c2nccc(OC)c2O)C(=O)O[C@@H](C)[C@@H]1Cc1ccccc1 [Compound 82]					< 70%	> 70%	> 70%	> 70%
COc1ccnc(C(=O)N[C@H]2CCC[C@H](Cc3ccccc3)[C@@H](CCc3ccccc3)[C@H](C)OC2=O)c1O [Compound 78]					> 70%	> 70%	> 70%	< 70%
COc1ccnc(C(=O)N[C@H]2CCC[C@H](CCCc3ccccc3)[C@@H](CCc3ccccc3)[C@H](C)OC2=O)c1OCOC(C)=O [Compound 32]	> 70%	< 70%	> 70%	< 70%				
COc1ccnc(C(=O)N[C@H]2CCC[C@H](CCCc3ccccc3)[C@@H](CC(C)C)[C@H](C)OC2=O)c1O [Compound 92]					> 70%	< 70%	> 70%	< 70%
COc1ccnc(C(=O)N[C@H]2CCC[C@H](CCC(C)C)[C@@H](Cc3ccccc3)[C@H](C)OC2=O)c1O [Compound 73]					> 70%	> 70%	> 70%	< 70%
COc1ccnc(C(=O)N[C@H]2CCC[C@H](Cc3ccc(Cl)cc3)[C@@H](C3CCCC3)[C@H](C)OC2=O)c1OCOC(C)=O [Compound 29]	> 70%	> 70%	> 70%	< 70%				
COc1ccnc(C(=O)N[C@H]2CCC[C@H](Cc3ccccc3)[C@@H](CCc3ccccc3)[C@H](C)OC2=O)c1OCOC(C)=O [Compound 15]	> 70%	> 70%	> 70%	< 70%				
COc1ccnc(C(=O)N[C@H]2CCC[C@H](CCC(C)C)[C@@H](CCc3ccccc3)[C@H](C)OC2=O)c1O [Compound 83]					> 70%	< 70%	> 70%	< 70%
COc1ccnc(C(=O)N[C@H]2CCC[C@H](Cc3ccc(C(F)(F)F)cc3)[C@@H](Cc3ccc(F)cc3)[C@H](C)OC2=O)c1O [Compound 86]					< 70%	< 70%	> 70%	< 70%
COc1ccnc(C(=O)N[C@H]2CCC[C@H](Cc3ccccc3)[C@@H](CCc3ccccc3)[C@H](C)OC2=O)c1OC(C)=O [Compound 18]	> 70%	> 70%	< 70%	< 70%				
COc1ccnc(C(=O)N[C@H]2CCC[C@H](Cc3ccc(Cl)cc3)[C@@H](C3CCCC3)[C@H](C)OC2=O)c1OCOC(=O)C(C)C [Compound 30]	> 70%	> 70%	< 70%	< 70%				
CCC[C@H]1CCC[C@H](NC(=O)c2nccc(OC)c2OC(C)=O)C(=O)O[C@@H](C)[C@@H]1Cc1ccccc1 [Compound 38]	> 70%	> 70%	> 70%	> 70%				
COc1ccnc(C(=O)N[C@H]2CCC[C@H](Cc3ccc(C(F)(F)F)cc3)[C@@H](Cc3ccccc3)[C@H](C)OC2=O)c1OCOC(=O)C(C)C [Compound 27]	> 70%	< 70%	> 70%	< 70%				

From patent US20150322051A1, “Macrocyclic picolinamides as fungicides” (Dow AgroSciences LLC, priority 2014, published 2015)
